Experiment [1] deals with IL-6 production in human monocytes cell line U937. The experiment in a line: IL-6 production by PMA/thymidine-stimulated U937 cells. It is filed as cell-based. The note with it: U937 after 10 ng/mL PMA and 10 μmol/L thymidine; 48 h after drug addition; vs control group. The procedure: Human monocytes cell line U937 were cultured using a 10% FBS RPMI 1640 medium (SIGMA-ALDRICH) at 37° C. under 5% CO2. Using a 24-well plate, U937 cells (1×10^5) were cultured for 24 hours in a medium containing 10 ng/mL phorbol-12-myristate-13-acetate (inflammatory substance, hereinafter abbreviated to as PMA) and 10 μmol/L thymidine in order for induction of inflammatory reaction. Twenty-four hours later, the medium was changed to fresh medium. To the drug administration group, TUPI or TPI was added. Forty-eight hours after the addition, the IL-6 level of each culture supernatant was determined by means of BioPlex (Bio-Rad Laboratories, Inc.).

Experiment [2] relates to rats having hydrochloric-acid-induced cystitis. The experiment in a line: Hydrochloric-acid-induced cystitis model rat, bladder functions by cystometry. It is filed as in vivo. The note with it: TPI 5, 50 or 100 mg/kg orally once a day for seven days; vs control group. The procedure:
To rats having hydrochloric-acid-induced cystitis serving as a cystitis model, 5-chloro-6-(2-iminopyrrolidin-1-yl)methyl-2,4(1H,3H)-pyrimidinedione hydrochloride (hereinafter abbreviated as “TPI”) (5, 50, or 100 mg/kg) was orally administered continuously for seven days, and the effect of TPI on bladder functions was evaluated. Specifically, 10-week-old SD rats were divided into groups (n=6) on the basis of body weight. To each of the rats of the control group and TPI administration groups, 0.4N HCl (0.2 mL) was intravesically administered once to the bladder under pentobarbital anesthesia (50 mg/kg, i.p.), to thereby induce a cystitis model. To a Sham group, saline (0.2 mL) was intravesically administered. From the day following the induction of cystitis model, distilled water for injection (5 mL/kg) was administered to the Sham and control groups, while distilled water for injection (5 mL/kg) containing TPI (5, 50, or 100 mg/kg) was administered to the TPI administration groups. In each case, the liquid was administered by forced oral administration once a day continuously for seven days. On the day following the final administration day, bladder functions (urination intervals and single urination output) of the rats of each group were evaluated through cystometry under anesthesia in accordance with a method described in BJU Int. 2007 October; 100(4): 935-9.

Experiment [3] has the same test system. The experiment is described as follows: Hydrochloric-acid-induced rat interstitial cystitis model, histological changes of the bladder (HE staining). It is filed as in vivo. The procedure: To rats having hydrochloric-acid-induced cystitis serving as an interstitial cystitis model, TPI (50 or 500 mg/kg) was orally administered continuously for seven days, and the effect of TPI on pathological histological improvement of the bladder tissue was evaluated. Specifically, 10-week-old SD rats were divided into groups (n=6) on the basis of body weight. To each of the rats of a control group and TPI administration groups, 0.4N HCl (0.2 mL) was intravesically administered once to the bladder under pentobarbital anesthesia (50 mg/kg, i.p.), to thereby induce a cystitis model. To a Sham group, saline (0.2 mL) was intravesically administered. From the day following the induction of cystitis model, distilled water for injection (5 mL/kg) was administered to the Sham and control groups, while distilled water for injection (5 mL/kg) containing TPI (50 or 500 mg/kg) was administered to the TPI administration groups. In each case, the liquid was orally administered continuously once a day for seven days. On the day following the final administration day, the bladder was removed from each of the rats under ether anesthesia and washed with saline. Subsequently, the washed bladder was fixed with 20% buffered formalin and 10% buffered formalin, followed by HE staining. Histological changes of the bladder were observed. […]

In a further experiment the test system is collagen arthritis mice. The experiment in a line: Collagen arthritis model mouse, arthritis score. It is filed as in vivo. Conditions: 500 mg/kg orally once a day; 11 to 14 days after second immunization. The procedure:
TPI (250 or 500 mg/kg) was orally administered to collagen arthritis mice (i.e., rheumatic model) continuously for 14 days, and the effect of TPI on edema of the limbs of each mouse was evaluated. Arthritis was induced in […] mice by type II collagen induction, and the mice were employed as a rheumatoid arthritis model. Specifically, type II collagen derived from bovine joint (K42, product of Collagen Gijyutsu Kensyukai) (200 μg) was suspended in Freund's complete adjuvant (DIFCO) (100 μL), and on day 1, the suspension was intradermally administered to the back of 8-week-old mice (DBA/1JN mice, Charles River Laboratories Japan Inc.). On day 21, type II collagen derived from bovine joint (K42) (200 μg) suspended in Freund's complete adjuvant (100 μL) was intradermally administered to the tail portion of each mice, to thereby induce an arthritis model. To the TPI administration groups, TPI (250 or 500 mg/kg/day) was orally administered continuously once a day during a period from day 21 to day 40. To the control, a solvent (0.5% aqueous HPMC) was administered instead of TPI according to the same administration schedule as employed in the TPI administration groups. […] The arthritis condition was evaluated on day 42; i.e., the day following the final administration day. […]

Experiment [4] deals with rats in which ulcer had been induced by hydrochloric acid. The experiment in a line: Hydrochloric-acid-induced acute gastritis model rat, gastric mucosal damage (lesion length). It is filed as in vivo. The note with it: control 120.4±8.5 mm. The procedure: TPI (100 or 200 mg/kg) was orally single-administered to rats in which ulcer had been induced by hydrochloric acid (i.e., an acute gastritis model), and the preventive effect of TPI on mucosal damage was evaluated. Specifically, 7-week-old female SD rats (Charles River Laboratories Japan Inc.) were fasted for about 18 hours. To the TPI administration groups, TPI (100 or 200 mg/kg) was orally administered, and after 30 minutes 0.6N HCl (5 mL/kg) was orally administered. To the control group, only 0.6N HCl (5 mL/kg) was orally administered. One hour after administration of hydrochloric acid, rats were euthanized through, and the stomach was removed from each rat. The tissue thereof was fixed with 1% formaline buffer, and the stomach was cut through the greater curvature. The longer diameter (mm) of a lesion was measured by means of an electronic caliper, and the total of the diameters was employed as an index for evaluating gastric mucosal damage.

The subject of experiment [5] is concanavalin-A-induced hepatitis model mice. The experiment is described as follows: Concanavalin-A-induced hepatitis model, serum AST and ALT. Type of experiment: in vivo, mouse. Conditions: TPI 100 mg/kg oral, 30 min before concanavalin A i.v., 24 h after. The procedure: TPI (100 mg/kg) was orally single-administered to […] in which hepatitis had been induced by concanavalin A (i.e., a hepatitis model), and the inhibitory effect of TPI on hepatitis was evaluated. Specifically, 6-week-old female C57BL/6NCrlCrlj mice (Charles River Laboratories Japan Inc.) were employed. To the TPI administration group, TPI (100 mg/kg) was orally administered, and after 30 minutes 2 mg/mL concanavalin A (150 μL/animal) was intravenously administered through the tail vein. To the control group, only a vehicle was orally administered instead of TPI. […] The serum ALT level (IU/L) and AST level (IU/L) were determined as index for liver disorders.

Take `Nc1[nH]c(=O)[nH]c(=O)c1Cl` [TUPI, 5-chloro-6-aminouracil, reference compound]: in experiment [1], the “IL-6 level of culture supernatant” value is recorded as “more significant suppression”.
`Cl.N=C1CCCN1Cc1[nH]c(=O)[nH]c(=O)c1Cl` [TPI, 5-chloro-6-(2-iminopyrrolidin-1-yl)methyl-2,4(1H,3H)-pyrimidinedione hydrochloride]: the “IL-6 level of culture supernatant” value in experiment [1] is listed as “more significant suppression”. In addition, the “bladder functions (urination interval, single urination output, effective vesical capacity, residual urine)” value in experiment [2] is on record as “improved in response to the administration amount”. Besides, the “Entire bladder: Thickening/proliferation of transitional epithelium, number of samples” value in experiment [3] (TAS-111 (50), grade +) was determined as 1; in experiment [3] (TAS-111 (50), grade ++), 2; in experiment [3] (TAS-111 (50), grade +++) it was 0; in experiment [3] (TAS-111 (500), grade +) it was 1; in experiment [3] (TAS-111 (500), grade ++), 0; in experiment [3] (TAS-111 (500), grade +++), 0. The “Lamina propria: Edema, number of samples” value worked out at 0 in experiment [3] (TAS-111 (50), grade +); 2 in experiment [3] (TAS-111 (50), grade ++); 0 in experiment [3] (TAS-111 (50), grade +++); 0 in experiment [3] (TAS-111 (500), grade +); 1 in experiment [3] (TAS-111 (500), grade ++); 0 in experiment [3] (TAS-111 (500), grade +++). Further, the “Lamina propria: Infiltration of mast cells/eosinocytes, number of samples” value in experiment [3] (TAS-111 (50), grade +) turned out to be 1; in experiment [3] (TAS-111 (50), grade ++), 2; in experiment [3] (TAS-111 (50), grade +++) it was 0; in experiment [3] (TAS-111 (500), grade +), 2; in experiment [3] (TAS-111 (500), grade ++) it was 0; in experiment [3] (TAS-111 (500), grade +++) it was 0. The “Tunica muscularis: Edema, number of samples” value in experiment [3] (TAS-111 (50), grade +) is 2; in experiment [3] (TAS-111 (50), grade ++), 0; in experiment [3] (TAS-111 (50), grade +++), 0; in experiment [3] (TAS-111 (500), grade +), 0; in experiment [3] (TAS-111 (500), grade ++), 0; in experiment [3] (TAS-111 (500), grade +++), 0. The “Tunica muscularis: Infiltration of mast cells/eosinocytes, number of samples” value is reported as 2 in experiment [3] (TAS-111 (50), grade +); 0 in experiment [3] (TAS-111 (50), grade ++); 0 in experiment [3] (TAS-111 (50), grade +++); 0 in experiment [3] (TAS-111 (500), grade +); 0 in experiment [3] (TAS-111 (500), grade ++); 0 in experiment [3] (TAS-111 (500), grade +++). Besides, the arthritis scores entry with collagen arthritis mice is on record as “significant suppression”. Also, the “gastric mucosal damage (total of longer diameters of lesions)” value in experiment [4] (TPI 100 mg/kg oral single dose 30 min before 0.6N HCl, significantly reduced) was 63.0±14.3 mm; in experiment [4] (TPI 200 mg/kg oral single dose 30 min before 0.6N HCl) it was 76.1±18.3 mm. Also, the “serum AST level” value in experiment [5] (control 4,506±864) is 1,540±477 IU/L. Besides, in experiment [5] (control 6,130±800), the “serum ALT level” value is 2,538±755 IU/L.

For the origin of these results see patent US20100240682A1, “PHOPHYLACTIC OR THERAPEUTIC AGENT FOR INFLAMATORY DISEASE COMPRISING THYMIDINE PHOSPHORYLASE INHIBITOR AS ACTIVE INGREDIENT” (TAIHO PHARMACEUTICAL CO., LTD., priority 2007, published 2010).
